Results published in patent US7455998B2, “Methods for forming structurally defined organic molecules” (Dow Corning Corporation, priority 2004, dated 2008).

Assays:
trypsin [1] = target: T1, trypsin (Bos taurus, UniProt P00760); experiment: Trypsin-catalyzed hydrolysis and condensation of alkoxysilanes; type: biochemical, bovine; parameters: purchased Sigma-Aldrich #T4665; host or cells: bovine pancreas; settings: 4:1 monomer to enzyme weight ratio, 25° C., three hours
T1 sequence (P00760 24-246): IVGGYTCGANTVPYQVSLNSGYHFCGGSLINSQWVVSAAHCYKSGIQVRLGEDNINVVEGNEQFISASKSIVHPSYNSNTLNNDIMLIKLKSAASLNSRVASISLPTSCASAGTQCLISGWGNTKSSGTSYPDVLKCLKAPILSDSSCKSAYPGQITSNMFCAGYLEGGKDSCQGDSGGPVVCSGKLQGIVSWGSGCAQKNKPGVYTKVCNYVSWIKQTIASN

trypsin [2] = target: T1, trypsin; experiment: Trypsin-catalyzed ring opening polymerization of cyclic siloxanes; type: biochemical, bovine; parameters: purchased Sigma-Aldrich #T4665; host or cells: bovine pancreas; settings: 25° C., pH 7.0, 8 days, qualitative GC; for Cyclic Area Percent, Trimer (x = 3), Trypsin / Cyclic Area Percent, Tetramer (x = 4), Trypsin / Cyclic Area Percent, Pentamer (x = 5), Trypsin: with trypsin; for Cyclic Area Percent, Trimer (x = 3), Control / Cyclic Area Percent, Tetramer (x = 4), Control / Cyclic Area Percent, Pentamer (x = 5), Control: without trypsin
Description: The ability of trypsin to catalyze the cleavage and formation of Si—O bonds during the ring opening polymerization of cyclic siloxanes was explored under mild conditions. Specifically, five cyclic siloxanes: hexamethylcyclotrisiloxane, octamethylcyclotetrasiloxane, trimethyltri(trifluoropropyl)cyclotrisiloxane, tetramethyltetra(trifluoropropyl)cyclotetrasiloxane, and tetramethyltetraphenylcyclotetrasiloxane, were selected to study how the activity of trypsin varied as a result of different steric and electronic interactions with the substrate.
The two-phase reactions were formulated with a 4:1 monomer to enzyme weight ratio and conducted at 25° C. in neutral media (pH 7.0) for 8 days. The reaction products were isolated and qualitatively analyzed by GC (Table 5).

[3] = Protease-catalyzed condensation study after three hours; type: biochemical
Description: In comparison to control reactions, the ability of the proteases detailed in Table 3 to catalyse siloxane condensation was screened with […]. Comparatively, the original reactions conducted in the enzyme-catalysed condensation study were performed for six days versus three hours in this study.
Prior to reaction, the glass vials were silylated. […].
TLCK inhibits trypsin by alkylating the histidine residue in the catalytic triad.

[4] = Hydrolysis and condensation control reactions after three hours; settings: for condensation of trimethylethoxysilane (result in words): pH 7.0, 25° C., three hours
Description: Prior to reaction, the alkoxysilane was pre-treated with sodium hydrogencarbonate due to the potential presence of residual chloro-functional silanes. The reactions were formulated with a 4:1 trimethylethoxysilane to protein weight ratio (˜1000:l alkoxysilane to trypsin mole ratio) in neutral media (pH 7.0) and conducted at 25° C. for three hours.

[5] = Hydrolysis and condensation of trimethylethoxysilane by different sources of trypsin; effect of calcium; type: biochemical; settings: for increase of yield of the condensation of trimethylsilanol with calcium: 20 mM CaCl2, pH 7.0, 25° C., three hours; for hydrolysis of trimethylethoxysilane and condensation of trimethylsilanol (result in words): pH 7.0, 25° C.
Description: Although various sources (e.g. mammalian, fish) of trypsin are similar (e.g. tertiary structure), their selectivity and activity may be different. […] . The reaction products were isolated and quantitatively analysed by GC (FIG. 24).
Calcium activation of trypsin induces changes in the tertiary structure of the enzyme. […] . […] The reaction products were isolated and quantitatively analysed by GC (FIG. 25).

[6] = Enzyme-catalyzed condensation study after six days; type: biochemical; settings: water, 25° C.
Description: This study was directed to an enzyme screen with […] in order to evaluate the ability of various enzymes to catalyze the formation of a siloxane bond. Based on the similarities of the proteins isolated from the Tethya aurantia marine sponge (silicatein), Cylindrotheca fusiformis diatom (silaffin), and Equisetum telmateia plant (biopolymer extract), a series of lipases and serine-proteases were selected as homologous proteolytic enzymes. […] […]. In this study, control reactions were defined as non-enzymatic reactions. Specifically, experiments conducted in the absence of a protein were defined as negative control reactions. Proteinaceous molecules such as bovine serum albumin and porcine γ-globulins were used to study non-specific protein catalysis.
[…]. […] (˜200 mg/mL).

## CCO[Si](C)(C)CCCOCC1CO1 (centres unmarked) [3-glycidoxypropyldimethylethoxysilane]
Trypsin [1]
  trypsin-catalyzed hydrolysis and condensation (result in words): preferentially catalyze the hydrolysis and condensation

## C[Si]1(C)O[Si](C)(C)O[Si](C)(C)O1 [A, hexamethylcyclotrisiloxane]
Trypsin [2]
  Cyclic Area Percent, Trimer (x = 3), Trypsin: (100)
  Cyclic Area Percent, Trimer (x = 3), Control: (100)

## C[Si]1(C)O[Si](C)(C)O[Si](C)(C)O[Si](C)(C)O1 [B, octamethylcyclotetrasiloxane]
Trypsin [2]
  Cyclic Area Percent, Tetramer (x = 4), Trypsin: (99.8)
  Cyclic Area Percent, Trimer (x = 3), Trypsin: (0.2)
  Cyclic Area Percent, Tetramer (x = 4), Control: (99.8)
  Cyclic Area Percent, Trimer (x = 3), Control: (0.2)

## C[Si]1(CCC(F)(F)F)O[Si](C)(CCC(F)(F)F)O[Si](C)(CCC(F)(F)F)O1 (centres unmarked) [C, trimethyltri(trifluoropropyl)cyclotrisiloxane]
Trypsin [2]
  Cyclic Area Percent, Pentamer (x = 5), Trypsin: (1.0)
  Cyclic Area Percent, Tetramer (x = 4), Trypsin: (1.9)
  Cyclic Area Percent, Trimer (x = 3), Trypsin: (97.1)
  Cyclic Area Percent, Pentamer (x = 5), Control: (0.8)
  Cyclic Area Percent, Tetramer (x = 4), Control: (1.7)
  Cyclic Area Percent, Trimer (x = 3), Control: (97.5)

## [Ca+2].[Cl-].[Cl-] [CaCl2, calcium chloride]
[3]; pH 7
  condensation of trimethylsilanol (result in words): not observed
[4]
  condensation of trimethylethoxysilane (result in words): not observed

## C[Si]1(CCC(F)(F)F)O[Si](C)(CCC(F)(F)F)O[Si](C)(CCC(F)(F)F)O[Si](C)(CCC(F)(F)F)O1 (centres unmarked) [D, tetramethyltetra(trifluoropropyl)cyclotetrasiloxane]
Trypsin [2]
  Cyclic Area Percent, Pentamer (x = 5), Trypsin: (5.1)
  Cyclic Area Percent, Tetramer (x = 4), Trypsin: (94.9)
  Cyclic Area Percent, Trimer (x = 3), Trypsin: (0)
  Cyclic Area Percent, Pentamer (x = 5), Control: (3.4)
  Cyclic Area Percent, Tetramer (x = 4), Control: (96.3)
  Cyclic Area Percent, Trimer (x = 3), Control: (0.2)

## C[Si]1(c2ccccc2)O[Si](C)(c2ccccc2)O[Si](C)(c2ccccc2)O[Si](C)(c2ccccc2)O1 (centres unmarked) [E, tetramethyltetraphenylcyclotetrasiloxane]
Trypsin [2]
  Cyclic Area Percent, Tetramer (x = 4), Trypsin: (100)
  Cyclic Area Percent, Tetramer (x = 4), Control: (100)

## Cn1ccnc1 [N-methylimidazole]
[3]; pH 7.0, three hours
  condensation of trimethylsilanol (result in words): not observed
[4]
  condensation of trimethylethoxysilane (result in words): not observed

## Cc1ccc(S(=O)(=O)N[C@@H](CCCCN)C(=O)CCl)cc1.Cl [TLCK, N-α-p-tosyl-L-lysine chloromethyl ketone hydrochloride]
[3]; replicate condensation experiment
  product yield of the α-chymotrypsin condensation reaction after TLCK treatment: significantly decreased

## CCO[Si](C)(C)CCCN [aminopropyldimethylethoxysilane]
Trypsin [1]
  trypsin-catalyzed hydrolysis and condensation (result in words): fully hydrolysed and condensed in the presence and absence of trypsin

## COCCOCCOCCOCCO[Si](C)(C)C [glycol-functional silane]
Trypsin [1]
  trypsin-catalyzed hydrolysis and condensation (result in words): not definitive

## C[Si]1(C)O[Si](C)(C)O[Si](C)(O)O[Si](C)(C)O1 [heptamethylhydroxytetracyclosiloxane]
Trypsin [1]
  trypsin-catalyzed hydrolysis and condensation (result in words): did not catalyze the condensation

## c1c[nH]cn1 [imidazole]
[3]; pH 7.0, three hours
  condensation of trimethylsilanol (result in words): not observed
[4]
  condensation of trimethylethoxysilane (result in words): not observed

## CCO[Si](C)(C)c1ccccc1 [phenyldimethylethoxysilane]
Trypsin [1]
  trypsin-catalyzed hydrolysis and condensation (result in words): hydrolysed but not condensed

## CCCCCCO[Si](C)(C)C [trimethylhexoxysilane]
Trypsin [1]
  trypsin-catalyzed hydrolysis and condensation (result in words): catalyzed the partial hydrolysis of trimethylhexoxysilane without condensation

## elastase: porcine pancreatic elastase
[3]; pH 7.0, three hours
  condensation of trimethylsilanol (result in words): inactivity

## poly-L-lysine
[3]; pH 7.0, three hours
  condensation of trimethylsilanol (result in words): not observed
[4]; neutral medium (pH 7.0)
  hydrolysis of trimethylethoxysilane (result in words): promoted the hydrolysis
[4]
  condensation of trimethylethoxysilane (result in words): not observed

B1: porcine pancreas trypsin: porcine pancreatic trypsin (protein, UniProt P00761 9-231, looked up)
Trypsin: IVGGYTCAANSIPYQVSLNSGSHFCGGSLINSQWVVSAAHCYKSRIQVRLGEHNIDVLEGNEQFINAAKIITHPNFNGNTLDNDIMLIKLSSPATLNSRVATVSLPRSCAAAGTECLISGWGNTKSSGSSYPSLLQCLKAPVLSDSSCKSSYPGQITGNMICVGFLEGGKDSCQGDSGGPVVCNGQLQGIVSWGYGCAQKNKPGVYTKVCNYVNWIQQTIAAN
[5]
  increase of yield of the condensation of trimethylsilanol with calcium: 125%
  hydrolysis of trimethylethoxysilane and condensation of trimethylsilanol (result in words): catalysed the complete hydrolysis
[5]; listed as trypsin from porcine pancreas
  hydrolysis of trimethylethoxysilane and condensation of trimethylsilanol (result in words): observed to catalyse the hydrolysis and condensation reactions

B2: recombinant bovine trypsin: Recombinant bovine trypsin expressed in maize (protein, UniProt P00760 24-246, looked up)
Serine protease 1: IVGGYTCGANTVPYQVSLNSGYHFCGGSLINSQWVVSAAHCYKSGIQVRLGEDNINVVEGNEQFISASKSIVHPSYNSNTLNNDIMLIKLKSAASLNSRVASISLPTSCASAGTQCLISGWGNTKSSGTSYPDVLKCLKAPILSDSSCKSAYPGQITSNMFCAGYLEGGKDSCQGDSGGPVVCSGKLQGIVSWGSGCAQKNKPGVYTKVCNYVSWIKQTIASN
modifications: expressed in maize
[5]
  increase of yield of the condensation of trimethylsilanol with calcium: 65%
  hydrolysis of trimethylethoxysilane and condensation of trimethylsilanol (result in words): catalysed the complete hydrolysis

B3: Candida antarctica lipase B: Candida antarctica lipase B immobilized on acrylic resin beads (protein, UniProt P41365 26-342, looked up)
Lipase B: LPSGSDPAFSQPKSVLDAGLTCQGASPSSVSKPILLVPGTGTTGPQSFDSNWIPLSTQLGYTPCWISPPPFMLNDTQVNTEYMVNAITALYAGSGNNKLPVLTWSQGGLVAQWGLTFFPSIRSKVDRLMAFAPDYKGTVLAGPLDALAVSAPSVWQQTTGSALTTALRNAGGLTQIVPTTNLYSATDEIVQPQVSNSPLDSSYLFNGKNVQAQAVCGPLFVIDHAGSLTSQFSYVVGRSALRSTTGQARSADYGITDCNPLPANDLTPEQKVAAAALLAPAAAAIVAGPKQNCEPDLMPYARPFAVGKRTCSGIVTP
modifications: immobilized on acrylic resin
notes: Candida antarctica lipase B immobilized on acrylic resin beads
[6]
  condensation of trimethylsilanol, Water: ✓ (determined to catalyse the condensation of greater than ten times more trimethylsilanol than the negative control reactions; as well as, greater than three or ten times more trimethylsilanol than the BSA reactions in organic and aqueous media, respectively)

B4: Rhizomucor miehei lipase: fungal lipase (protein, UniProt P19515 95-363, looked up)
Lipase: SIDGGIRAATSQEINELTYYTTLSANSYCRTVIPGATWDCIHCDATEDLKIIKTWSTLIYDTNAMVARGDSEKTIYIVFRGSSSIRNWIADLTFVPVSYPPVSGTKVHKGFLDSYGEVQNELVATVLDQFKQYPSYKVAVTGHSLGGATALLCALDLYQREEGLSSSNLFLYTQGQPRVGDPAFANYVVSTGIPYRRTVNERDIVPHLPPAAFGFLHAGEEYWITDNSPETVQVCTSDLETSDCSNSIVPFTSVLDHLSYFGINTGLCT
[6]
  condensation of trimethylsilanol, Water: ✓ (determined to catalyse the condensation of greater than ten times more trimethylsilanol than the negative control reactions; as well as, greater than three or ten times more trimethylsilanol than the BSA reactions in organic and aqueous media, respectively)
